{
  "source": "paper PMC3487895",
  "about": "“Artepillin C, a Major Ingredient of Brazilian Propolis, Induces a Pungent Taste by Activating TRPA1 Channels” (PLoS ONE, 2012)",
  "key": {"[1]": {"target": "T1, human transient receptor potential ankyrin 1 (hTRPA1) (Homo sapiens, UniProt O75762)", "T1 construct": "gene TRPA1; entire coding region (NM_007332.2)", "T1 sequence (O75762 whole entry)": "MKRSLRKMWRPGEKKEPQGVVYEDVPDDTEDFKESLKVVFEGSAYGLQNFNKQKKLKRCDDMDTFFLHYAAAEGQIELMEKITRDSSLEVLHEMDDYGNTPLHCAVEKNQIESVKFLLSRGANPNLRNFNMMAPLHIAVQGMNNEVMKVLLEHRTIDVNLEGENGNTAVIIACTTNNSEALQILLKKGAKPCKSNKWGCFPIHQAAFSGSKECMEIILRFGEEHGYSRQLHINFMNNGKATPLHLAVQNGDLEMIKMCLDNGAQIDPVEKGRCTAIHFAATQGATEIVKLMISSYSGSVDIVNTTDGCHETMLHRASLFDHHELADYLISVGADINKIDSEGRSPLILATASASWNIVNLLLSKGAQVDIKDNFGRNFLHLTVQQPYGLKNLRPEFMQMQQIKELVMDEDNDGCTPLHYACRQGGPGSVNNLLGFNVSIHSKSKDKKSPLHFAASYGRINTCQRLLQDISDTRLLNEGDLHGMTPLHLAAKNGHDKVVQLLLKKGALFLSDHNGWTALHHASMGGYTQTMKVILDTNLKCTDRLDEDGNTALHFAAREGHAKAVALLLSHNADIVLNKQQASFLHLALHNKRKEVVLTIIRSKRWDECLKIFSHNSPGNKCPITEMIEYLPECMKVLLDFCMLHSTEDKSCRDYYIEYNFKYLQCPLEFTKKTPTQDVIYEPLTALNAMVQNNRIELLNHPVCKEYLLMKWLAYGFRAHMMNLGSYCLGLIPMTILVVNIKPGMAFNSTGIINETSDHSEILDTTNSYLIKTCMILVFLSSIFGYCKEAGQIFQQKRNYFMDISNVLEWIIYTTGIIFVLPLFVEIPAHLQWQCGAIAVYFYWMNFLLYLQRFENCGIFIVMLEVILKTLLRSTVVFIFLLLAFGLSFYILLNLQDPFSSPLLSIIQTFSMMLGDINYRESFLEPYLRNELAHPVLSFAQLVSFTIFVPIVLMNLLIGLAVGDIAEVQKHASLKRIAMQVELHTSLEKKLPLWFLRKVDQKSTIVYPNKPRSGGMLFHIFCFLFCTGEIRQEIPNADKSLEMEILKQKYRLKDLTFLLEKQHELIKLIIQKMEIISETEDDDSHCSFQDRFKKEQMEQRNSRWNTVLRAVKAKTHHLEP", "assay": "calcium influx (FLIPR Calcium […] plate reader and Fura-2 imaging) in hTRPA1-expressing Flp-In […] cells; blocked by HC-030031, absent in parental cells", "assay_type": "cell-based"}, "[2]": {"target": "T1, human transient receptor potential ankyrin 1 (hTRPA1)", "assay": "calcium influx (FLIPR Calcium […] plate reader and Fura-2 imaging) in hTRPA1-expressing Flp-In […] cells; blocked by HC-030031", "assay_type": "cell-based"}},
  "note": "pEC50: −log10 of the molar value.",
  "data": [
    {"molecule": "CC(C)=CCc1cc(/C=C/C(=O)O)cc(CC=C(C)C)c1O", "note": "[artepillin C, 3,5-diprenyl-4-hydroxycinnamic acid]", "values": [
      {"measurement": "pEC50", "setting": "[1]", "result": 5.74}
    ]},
    {"molecule": "CC(C)=CCc1cc(/C=C/C(=O)O)ccc1OC(=O)CCc1ccccc1", "note": "[baccharin, (E)-3-prenyl-4-(2,3-dihydrocinnamoyloxy) cinnamic acid]", "values": [
      {"measurement": "pEC50", "setting": "[2]", "result": 4.81}
    ]}
  ]
}
